From patent publication US8846601B2, “Melanocortin receptor-specific peptides” (Palatin Technologies, Inc., priority 2009, dated 2014)
Bridge positions count the residues as written; N and C are the ends. Square brackets hold non-standard residues; d marks the D form. Peptide text beside a SMILES is read from it. * marks the point of attachment. Bn = c1ccc(C*)cc1

target: hMC4-R (Homo sapiens (Human), UniProt P32245); assay: Competitive inhibition binding assay using [I125]-NDP-α-MSH, hMC4-R membranes; conditions: averaged; [I125]-NDP-α-MSH (values not marked *); read-out: MC4-R Ki
Method: A competitive inhibition binding assay is performed using membrane homogenates prepared from HEK-293 cells that express recombinant hMC4-R, hMC3-R, or hMC5-R, and from B-16 mouse melanoma cells (containing endogenous MC1-R). In some instances, HEK-293 cells that express recombinant hMC1-R were employed. In the examples that follow, all MC3-R, MC4-R and MC5-R values are for human recombinant receptors. […] Membrane homogenates were incubated with 0.2 nM (for hMC4-R) 0.4 nM (for MC3-R and MC5-R) or 0.1 nM (for mouse B16 MC1-R or hMC1-R) [I^125]-NDP-α-MSH (Perkin Elmer) and increasing concentrations of test peptides of the present invention in buffer containing 25 mM HEPES buffer (pH 7.5) with 100 mM NaCl, 2 mM CaCl2, 2 mM MgCl2, 0.3 mM 1,10-phenanthroline, and 0.2% bovine serum albumin. After incubation for 60 minutes at 37° C., the assay mixture was filtered and the membranes washed three times with ice-cold buffer. Filters were dried and counted in a gamma counter for bound radioactivity. […] Maximal specific binding (100%) was defined as the difference in radioactivity (cpm) bound to cell membranes in the absence and presence of 1 μM NDP-α-MSH. […] Each assay was conducted in triplicate and the actual mean values are described, with results less than 0% reported as 0%. Ki values for test peptides of the present invention were determined using Graph-Pad Prism® curve-fitting software.

hMC4-R, sequence (P32245 whole entry): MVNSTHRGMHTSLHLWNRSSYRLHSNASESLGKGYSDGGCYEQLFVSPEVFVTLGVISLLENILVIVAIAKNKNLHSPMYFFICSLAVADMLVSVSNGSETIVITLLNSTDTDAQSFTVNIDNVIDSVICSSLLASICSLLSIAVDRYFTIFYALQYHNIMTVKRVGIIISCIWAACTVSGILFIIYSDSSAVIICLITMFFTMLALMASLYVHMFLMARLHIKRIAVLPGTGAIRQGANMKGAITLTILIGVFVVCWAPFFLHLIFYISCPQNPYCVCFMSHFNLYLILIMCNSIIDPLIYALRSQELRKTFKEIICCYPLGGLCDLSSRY

Compound	Ki
CC(=O)N[C@@H](CCCNC(=N)N)C(=O)N[C@H]1CCC(=O)NCCC[C@@H](C(N)=O)NC(=O)[C@H](Cc2c[nH]c3ccccc23)NC(=O)[C@H](CCCNC(=N)N)NC(=O)[C@@H](Cc2ccccc2)NC(=O)[C@H](CC[S+](C)[O-])NC1=O (stereo partly drawn) [compound 111, Ac-Arg-cyclo(Glu- Met(═O)-D-Phe-Arg- Trp-Orn)-NH2]	0.009 µM
CCCCC(=O)N[C@H]1CCC(=O)NCC[C@@H](C(=O)N[C@@H](Cc2c[nH]c3ccccc23)C(N)=O)NC(=O)[C@H](CCCNC(=N)N)NC(=O)[C@@H](Cc2ccccc2)NC(=O)[C@H](Cc2c[nH]cn2)NC1=O [compound 153, n-C4H9—CO-cyclo(Glu- His-D-Phe-Arg-Dab)- Trp-NH2]	0.365 µM
CC(=O)N[C@@H](CCCNC(=N)N)C(=O)N[C@H]1CCCCNC(=O)C[C@@H](C(N)=O)NC(=O)[C@H](Cc2c[nH]c3ccccc23)NC(=O)[C@H](CCCNC(=N)N)NC(=O)[C@@H](Cc2ccccc2)NC(=O)[C@H](CCC(N)=O)NC1=O [compound 151, Ac-Arg-cyclo(Lys-Gln- D-Phe-Arg-Trp-Asp)- NH2] (HELM PEPTIDE1{[ac].R.K.Q.[dF].R.W.D.[am]}$PEPTIDE1,PEPTIDE1,3:R3-8:R3$$$V2.0)	0.004 µM
CC(=O)N[C@@H](CCCN)C(=O)N[C@H]1CCCNC(=O)CC[C@@H](C(N)=O)NC(=O)[C@H](Cc2c[nH]c3ccccc23)NC(=O)[C@H](CCCNC(=N)N)NC(=O)[C@@H](Cc2ccccc2)NC(=O)[C@H](CC(N)=O)NC1=O [compound 158, Ac-Orn-cyclo(Orn-Asn- D-Phe-Arg-Trp-Glu)- NH2] (HELM PEPTIDE1{[ac].[Orn].[Orn].N.[dF].R.W.E.[am]}$PEPTIDE1,PEPTIDE1,3:R3-8:R3$$$V2.0)	0.05 µM
CC(=O)N[C@@H](CCCNC(N)=O)C(=O)N[C@H]1CC(=O)NCCCC[C@@H](C(N)=O)NC(=O)[C@H](Cc2c[nH]c3ccccc23)NC(=O)[C@H](CCCNC(=N)N)NC(=O)[C@@H](Cc2ccccc2)NC(=O)[C@H](CCN)NC1=O [compound 141, Ac-Cit-cyclo(Asp-Dab- D-Phe-Arg-Trp-Lys)- NH2]	0.009 µM
CC(=O)N[C@@H](CCCNC(=N)N)C(=O)N[C@H]1CCCC(=O)NCC[C@@H](C(=O)O)NC(=O)[C@H](Cc2c[nH]c3ccccc23)NC(=O)[C@H](CCCNC(=N)N)NC(=O)[C@@H](Cc2ccccc2)NC(=O)[C@H](CCN)NC1=O [compound 144, Ac-Arg-cyclo(hGlu-Dab- D-Phe-Arg-Trp-Dab)- OH]	0.045 µM
CC(=O)N[C@@H](CCCNC(=N)N)C(=O)N[C@H]1CC(=O)NCCCC[C@@H](C(N)=O)NC(=O)[C@H](Cc2c[nH]c3ccccc23)NC(=O)[C@H](CCCNC(=N)N)NC(=O)[C@@H](Cc2ccccc2)NC(=O)[C@H](CO)NC1=O [compound 117, Ac-Arg-cyclo(Asp-Ser- D-Phe-Cit-Trp-Lys)-NH2]	1.45 µM
CC(=O)N[C@@H](CCCNC(=N)N)C(=O)N[C@H]1CC(=O)NCCCC[C@@H](C(=O)O)NC(=O)[C@H](Cc2c[nH]c3ccccc23)NC(=O)[C@H](CCCNC(=N)N)NC(=O)[C@@H](Cc2ccccc2)NC(=O)[C@H](CCCN)NC1=O [compound 58, Ac-Arg-cyclo(Asp-Orn- D-Phe-Arg-Trp-Lys)-OH]	0.023 µM
CC(=O)N[C@@H](CCCNC(=N)N)C(=O)N[C@H]1CC(=O)NCCCC[C@@H](C(N)=O)NC(=O)[C@H](Cc2c[nH]c3ccccc23)NC(=O)[C@H](CCCNC(=N)N)NC(=O)[C@@H](Cc2ccccc2)NC(=O)[C@@H]2C[C@@H](O)CN2C1=O [compound 79, Ac-Arg-cyclo(Asp-Hyp- D-Phe-Arg-Trp-Lys)- NH2]	0.004 µM
CC(=O)N[C@@H](CCCNC(=N)N)C(=O)N[C@H]1CC(=O)NCCCC[C@@H](C(N)=O)NC(=O)[C@H](Cc2c[nH]c3ccccc23)NC(=O)[C@H](CCCNC(=N)N)NC(=O)[C@@H](Cc2ccccc2)NC(=O)[C@H]([C@@H](C)OCc2ccccc2)NC1=O [compound 14, Ac-Arg-cyclo(Asp- Thr(Bzl)-D-Phe-Arg- Trp-Lys)-NH2] (Ac-RDT(Bn)[dF]RWK-NH2; lactam 2-7)	0.001 µM
